Data set [1] in a line: Differential scanning calorimetry (DSC), degree of crystallinity. Format: physicochemical. From the text: The coated herbicide powder and the water dispersible granule compositions described herein include coated, solid particles of fluroxypyr-meptyl that are largely or nearly completely in crystalline form. The degree of crystallinity of the solid particles of fluroxypyr-meptyl in these compositions (i.e., the weight percent of the fluroxypyr-meptyl that is in crystalline form) can be determined by differential scanning calorimetry (DSC) analysis and comparing the thermal properties of these compositions to a crystalline, non-coated sample of fluroxypyr-meptyl. In some embodiments, the coated particles of fluroxypyr-meptyl in these compositions have a degree of crystallinity that is at least about 70%, at least about 80%, at least about 90%, at least about 91%, at least about 92%, at least about 93%, at least about 94%, at least about 95%, at least about 96%, at least about 97%, at least about 98%, or at least about 99% and is reached within about one day, within about 2 days, within about 3 days, within about 4 days, within about 5 days, within about 6 days, or within about 7 days from the time of preparation of these solid compositions. […]
In general terms: In DSC, transitions show as peaks or steps in heat flow.

The conditions of data set [2]: cited from earlier work.

Bounds are passed on as bounds.

As for `CCCCCCC(C)OC(=O)COc1nc(F)c(Cl)c(N)c1Cl` (centres unmarked) [Fluroxypyr-meptyl, 2-methylheptyl ester of 4-amino-3,5-dichloro-6-fluoro-2-pyridyloxyacetic acid], the “DSC Thermal Data: Heat Flow (absorbed)” value in data set [1] turned out to be 70.01 J/g. In addition, the solubility in water in data set [2] is under 1 ppm.

Source of the values: US11039614B2, “Solid herbicide compositions containing fluroxypyr-meptyl” (Dow AgroSciences LLC, priority 2015, dated 2021).
